Laboratory results from patent US6184246A, “Inhibition of cytokine production by polymethoxylated flavones” (priority 1999, dated 2001).
Entries after “also recorded” stand apart in the source; their conditions may differ.

Columns and labels:
IL-1β mRNA = IL-1β mRNA level by RT-PCR in LPS-stimulated monocytes; type: cell-based, human; settings: data not shown
Experimental: (§1) Analysis of specific mRNA levels by reverse transcriptase-polymerase chain reaction (RT-PCR): Monocytes were purified from PBMC by centrifugal elutriation. Monocytes were resuspended to 5×10^6 /mL in complete medium and 2 mL of cell suspension were dispensed into FALCON 17×100 mm polypropylene culture tubes (Becton Dickinson). Cultures were adjusted to contain graded concentrations of HMF and cultured 30 min at 37° C. and 5% CO2. Cultures were then adjusted to contain 20 ng/mL LPS for an additional 90 min. Culture media was then removed and monocytes were lysed in RNAzol (Teltext Inc., Friendswood, Tex.) and total RNA was isolated according to the manufacturer's instructions. Relative levels of TNFα and IL-1β mRNA were then measured by RT-PCR as previously described (Manthey, C. L., J. Leuk Biol. 1998, 64: 409-416). PCR was carried out in the presence of [α-^32 P]dCTP. Radiolabeled products were resolved by agarose gel electrophoresis and quantified using a PhosphorImager (Molecular Dynamics, Sunnyvale, Calif.). For these reactions, the following primer sets were used:
IL-1β, (5'): GACACATGGGATAACGAGGCT, (3'): ACGCAGGACAGGTACAGATTC.

TNFα = TNFα production by LPS-stimulated human monocytes (ELISA); type: cell-based
Experimental: Isolation of human peripheral blood monocytes: Peripheral blood mononuclear cells (PBMCs) were isolated from residual source leukocytes (Bonfils Blood Center, CO) by density gradient centrifugation using Ficoll-Paque Plus (Pharmacia, Sweden).
To measure the impact of the flavones on cytokine production, PBMCs were resuspended to 4×10^6 /mL in complete medium, i.e., Dulbecco's Modified Eagle Medium containing 30% FCS, 2 mM glutamine, 100 U/mL Penicillin-G, and 100 μg/mL streptomycin. […] Nonadherent cells (lymphocytes) were separated from the plastic adherent cells (monocytes) by washing the wells twice with 200 μL of medium. The monocytes were cultured an additional 30 min in 100 μL of complete medium containing graded concentrations of the compound of interest and the cultures were then adjusted to contain […] LPS to stimulate cytokine production. Culture supernatants were harvested 14 h later, and cells were lysed by addition of 50 μL of Dulbecco's phosphate buffered saline containing 1% NP40. Culture supernatants were evaluated for TNFα, IL-1β, IL-6, IL-8, IL-10, and MIP-1α content using specific enzyme-linked immunosorbent assays (ELISA) purchased from R&D Systems. IL-1β was measured in cell lysates by ELISA. Lactate dehydrogenase (LDH) content of cell lysates was measured to determine compound effects on cell viability: To 50 μL of lysate were added 200 μL of 50 mM sodium pyrophosphate buffer (pH 8.9) containing 50 mM lactic acid and 4 mg/mL β-nicotinamide adenine dinucleotide (Sigma); rates of reduction of nicotinamide adenine dinucleotide were measured at room temperature at 340 nm.

IL-10 = IL-10 production by LPS-stimulated human monocytes (ELISA); type: cell-based
Experimental: (§2) Adherent purified human monocytes were cultured in the presence of graded concentrations of heptamethoxyflavone for 30 min. The monocyte cultures were then adjusted to contain 20 ng/mL LPS. After 14 h of culture, the cytokines TNFα, IL-6, IL-8, MIP-1α, and IL-10 were assayed in the culture supernatants and IL-1β was assayed in the cell lysates using specific ELISA assays as described below. Values expressed as the percent of cytokine produced in flavone-free cultures are the means and standard errors determined using monocytes isolated from three independent donors.
(§3) Isolation of human peripheral blood monocytes: Peripheral blood mononuclear cells (PBMCs) were isolated from residual source leukocytes (Bonfils Blood Center, CO) by density gradient centrifugation using Ficoll-Paque Plus (Pharmacia, Sweden). Monocytes were purified further by plastic adherence (see below) or by centrifugal elutriation as described previously (Manthey, C. L., et al., J. Leuk Biol., 64: 409-416 (1998)).
(§4) IL-1β was measured in cell lysates by ELISA.

IL-8 = IL-8 production by LPS-stimulated human monocytes (ELISA); type: cell-based
Experimental: as §2, §3, §4

[1] = system: type-IV phosphodiesterase semi-purified from U937 cells; assay: Phosphodiesterase cAMP SPA enzyme assay; type: biochemical; settings: hydrolysis of cAMP; read-out: concentration inhibiting phosphodiesterase activity 50%
Experimental: PDE semipurified from U937 monocytic cells was evaluated for the ability to catalyze the hydrolysis of cAMP in the presence of graded concentrations of flavone, myricetin, and HMF as described below. The rates are plotted as percent of control-reactions, where no flavonoids were present. Testing flavones as phosphodiesterase inhibitors and inducers of cellular cyclic adenosine monophosphate (cAMP): The Phosphodiesterase cAMP SPA Enzyme Assay (Amersham, Arlington Heights, Ill.) was used to test the ability of flavones to inhibit cAMP hydrolysis catalyzed by phosphodiesterase. The phosphodiesterase used in this study was semi-purified from U937 cells, and was determined to be mostly the type-IV isoform based on sensitivity to selected isoform inhibitors (Trophy, T. J., J. Pharmacol. Experimental Therapeutics, 1195-1205 (1992)).

intracellular cAMP = assay: Cellular cAMP in human monocytes (EIA); type: cell-based; settings: 100 μM, 30 min
Experimental: To test flavones for the ability to cause an increase in cellular cAMP, monocytes were purified from PBMC by centrifugal elutriation. Monocytes were resuspended to 5×10^6 /mL in complete medium and 2 mL cell suspension were dispensed into FALCON 17×100 mm polypropylene culture tubes (Becton Dickinson). The cells were precultured 2 h at 37° C. and 5% CO2, and then cultured an additional 30 min following adjusting culture media to contain 100 μM of the flavone of interest or 200 μM IBMX (3-isobutyl-1-methylxanthine). Cells were then collected by centrifugation, lysed in 300 μL of ice cold aqueous solution containing 10 mM HEPES (pH 7.6) and 1% NP40. The lysates were applied to 100 mg columns of Amprep SAX resin (Amersham). The columns were then rinsed with 1 mL of methanol and the cAMP was eluted in 600 μL of methanol containing 0.01 M HCl. The eluates were chilled on dry ice and dried under vacuum. The Amersham Biotrak cAMP EIA assay was used to measure cAMP content of residues resuspended in 400 μL of assay buffer.

IL-1β = IL-1β production by LPS-stimulated human monocytes (ELISA, cell lysates); type: cell-based
Experimental: as §2, §3, §4

MIP-1α = MIP-1α production by LPS-stimulated human monocytes (ELISA); type: cell-based
Experimental: as §2, §3, §4

IL-6 = IL-6 production by LPS-stimulated human monocytes (ELISA); type: cell-based
Experimental: as §2, §3, §4

TNFα mRNA = TNFα mRNA level by RT-PCR in LPS-stimulated monocytes; type: cell-based, human; settings: graded concentrations, 20 ng/mL LPS, 90 min, GAPDH internal standard
Experimental: Primary elutriated human monocytes were cultured in the presence of graded concentrations of HMF for 30 min. The monocyte cultures were then adjusted to contain 20 ng/mL LPS. At 90 min of culture, monocytes were harvested by centrifugation, and RNA was isolated from the cell pellet. Relative levels of TNFα and the constitutively expressed glyceraldehyde 3-phosphate dehydrogenase (GAPDH) mRNA were determined by RT-PCR as described below.
as §1, with “Culture media was then removed and monocytes were lysed in RNAzol (Teltext Inc., Friendswood, Tex.) and total RNA was isolated according to the manufacturer's instructions.” left out, “PCR was carried out in the presence of [α-^32 P]dCTP.” left out, “For these reactions, the following primer sets were used:” left out

[2] = cytokine suppression profile, HMF compared against IBMX (Table 2)

IC50 (TNFα; Monocyte, human monocytes, 30 min preculture with compound, LPS, 14 h, 30% FCS, read-out: IC50 for inhibition of TNFα production): 5 µM
IC50 (IL-10; Monocyte, monocytes from three independent human donors, LPS, 14 h, read-out: IC50 for inhibition of IL-10): 12.3 ± 3.5 µM
IC50 [1]: 2 µM
IC50 (MIP-1α; Monocyte, monocytes from three independent human donors, LPS, 14 h, read-out: IC50 for inhibition of MIP-1α): 7.3 ± 0.7 µM
Compound: COc1ccc(-c2oc3c(OC)c(OC)c(OC)c(OC)c3c(=O)c2OC)cc1OC [HMF, 3,5,6,7,8,3',4'-heptamethoxyflavone]
induction of IL-1β mRNA (IL-1β mRNA): not effected
inhibition of TNFα production (in words) (TNFα; LPS-stimulated human monocytes): potent inhibitor
inhibition of IL-10 production (in words) (IL-10; LPS-stimulated human monocytes): potent inhibitor; also recorded: inhibition
inhibition of lipopolysaccharide-induced expression of IL-8 (IL-8; 100 μM): no inhibition
suppression of IL-8 production (IL-8; [2]): neither suppressed
increase of monocyte cAMP levels over media alone (in words) (intracellular cAMP): at least a doubling
intracellular cAMP level (intracellular cAMP; media alone 2.7±0.9): 5.7±1.8 pmol/10^7 cells
inhibition of lipopolysaccharide-induced expression of IL-1β (IL-1β; 100 μM): no inhibition
suppression of IL-1β production (IL-1β; [2]): neither suppressed
inhibition of MIP-1α production (in words) (MIP-1α; LPS-stimulated human monocytes): potent inhibitor
inhibition of lipopolysaccharide-induced expression of IL-6 (IL-6; 100 μM): no inhibition
activation at 100 µM (IL-6; Homo sapiens, Monocyte, 14 h, 100 μM, read-out: increase of IL-6 expression): 30%
suppression of IL-6 production (IL-6; [2]): neither suppressed
suppression of lipopolysaccharide-induced TNFα mRNA expression (TNFα mRNA): suppress; also recorded: selectively blocks
